From patent publication USRE30548E, “Peptides which effect release of hormones” (The Salk Institute for Biological Studies, priority 1979, dated 1981)
Bridge positions count the residues as written; N and C are the ends. Ends that are not written are not given here.

Key:
insulin secretion = assay: In vivo bioassay: inhibition of insulin release in anesthetized rats (portal vein plasma); design: species or system Sprague-Dawley-CD rats; conditions: in vivo rat, via external jugular vein; somatostatin = 100
Experimental: (§1) An investigation of the effect of somatostatin, dihydrosomatostatin, (as controls) and the peptides of the invention to inhibit the release of glucagon and insulin was made as follows:
(§2) In vivo Bioassay: Male Sprague-Dawley-CD rats weighing 180-200 g housed in temperature and humidity controlled quarters with 14h light and 10h dark (light 0700-[…]) were used in all experiments. Animals were fed a standard ration and tap water ad libitum. Experiments were carried out at least 5 days after arrival of rats from the supplier between the hours 1400 to 1600. After ether anesthesia, peptides or saline were administered in a volume of 0.2 ml. via the external jugular vein. Animals remained anesthetized until the time of blood collection from the portal vein. […]
(§3) Plasma was stored at -20° C. for insulin and glucagon determinations. Insulin levels were determined by the method of Herbert et al, J. […]. Endocr. […] Glucagon was determined by the method of Faloona and Unger, in Jaffe et al ed., Methods of Hormone Radioimmunoassay, Academic Press, New York, 1974, p. […] was determined by the glucose oxidase method, utilizing a Beckman Glucose Analyzer.
(§4) All experiments were carried on in a randomized block design. Following analysis of variance difference between treatments were determined by the multiple range tests of Dunnett and Duncan. Potency values were calculated from four or six point bioassays.

glucagon secretion = assay: In vivo bioassay: inhibition of glucagon release in anesthetized rats (portal vein plasma); design: species or system Sprague-Dawley-CD rats; conditions: in vivo rat, via external jugular vein; somatostatin = 100
Experimental: as §1, §2, §3, §4

Substance: somatostatin (AGCKNFFWKTFTSC; disulfide 3-14; ends not checked; UniProt P61278 103-116, looked up)
- percent effectiveness for inhibiting secretion of Insulin, somatostatin taken as the base (insulin secretion): 100%
- percent effectiveness for inhibiting secretion of Glucagon, somatostatin taken as the base (glucagon secretion): 100%
